In patent US20250275959A1, “COMPOUNDS AND METHODS OF THEIR USE” (LEXICON PHARMACEUTICALS, INC., priority 2024, published 2025):

Legend:
[1] = molecular target: T1, hACSL5 (Homo sapiens (Human), UniProt Q9ULC5); assay: Cell-based assay (CBA) with B12FA in hACSL5-transfected Expi293F / FlpIn TRex293 cells; details: hACSL5-expressing cells
Procedure, shortened: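 hACSL5-expressing Expi293F or tetracycline-induced FlpIn TRex293 cells, serum- and glucose-starved 1 h, then treated 3 h with serially diluted compound plus 20 µM B12FA. After fixation, 630/520 nm emission ratio (ex 485 nm) gave % inhibition versus no-inhibitor and 10 µM compound/non-induced controls; IC50 by Hill fit.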
Target sequence in this assay (Q9ULC5 whole entry): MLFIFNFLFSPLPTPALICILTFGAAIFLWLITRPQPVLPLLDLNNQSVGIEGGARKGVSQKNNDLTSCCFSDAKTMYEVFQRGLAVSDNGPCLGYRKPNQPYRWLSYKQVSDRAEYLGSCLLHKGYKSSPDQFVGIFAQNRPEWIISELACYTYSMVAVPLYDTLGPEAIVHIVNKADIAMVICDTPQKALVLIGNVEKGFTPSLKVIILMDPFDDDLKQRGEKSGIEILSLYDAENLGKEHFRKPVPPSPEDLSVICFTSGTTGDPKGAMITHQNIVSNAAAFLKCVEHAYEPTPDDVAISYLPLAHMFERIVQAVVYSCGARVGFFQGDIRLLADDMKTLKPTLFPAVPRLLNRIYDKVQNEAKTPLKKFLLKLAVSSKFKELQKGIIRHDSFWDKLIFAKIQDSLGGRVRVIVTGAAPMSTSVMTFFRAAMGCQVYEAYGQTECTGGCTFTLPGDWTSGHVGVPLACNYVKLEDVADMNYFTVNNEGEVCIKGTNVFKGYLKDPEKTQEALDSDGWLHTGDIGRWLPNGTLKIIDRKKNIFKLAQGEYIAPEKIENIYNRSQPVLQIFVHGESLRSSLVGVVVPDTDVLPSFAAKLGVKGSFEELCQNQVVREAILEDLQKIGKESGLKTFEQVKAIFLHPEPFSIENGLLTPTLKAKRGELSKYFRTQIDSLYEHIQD

[2] = molecular target: T1, hACSL5; assay: Human ACSL5 coupled enzyme Amplex Red assay; type: biochemical; details: read-out: hACSL5 IC50
Procedure, shortened: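 Amplex Red coupled readout: 1 mM ATP, 25 μM oleate and 30 μM CoA were added to compound-preincubated enzyme (20 nM, residues 33-683, insect-cell expressed, His-tagged) with coupling peroxidase and acyl-CoA oxidase at pH 7.6. Signal was read at 535/590 nm after 10 minutes at 25° C., and Hill fits yielded half-maximal and maximal inhibition.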
Target sequence in this assay (Q9ULC5 33-683): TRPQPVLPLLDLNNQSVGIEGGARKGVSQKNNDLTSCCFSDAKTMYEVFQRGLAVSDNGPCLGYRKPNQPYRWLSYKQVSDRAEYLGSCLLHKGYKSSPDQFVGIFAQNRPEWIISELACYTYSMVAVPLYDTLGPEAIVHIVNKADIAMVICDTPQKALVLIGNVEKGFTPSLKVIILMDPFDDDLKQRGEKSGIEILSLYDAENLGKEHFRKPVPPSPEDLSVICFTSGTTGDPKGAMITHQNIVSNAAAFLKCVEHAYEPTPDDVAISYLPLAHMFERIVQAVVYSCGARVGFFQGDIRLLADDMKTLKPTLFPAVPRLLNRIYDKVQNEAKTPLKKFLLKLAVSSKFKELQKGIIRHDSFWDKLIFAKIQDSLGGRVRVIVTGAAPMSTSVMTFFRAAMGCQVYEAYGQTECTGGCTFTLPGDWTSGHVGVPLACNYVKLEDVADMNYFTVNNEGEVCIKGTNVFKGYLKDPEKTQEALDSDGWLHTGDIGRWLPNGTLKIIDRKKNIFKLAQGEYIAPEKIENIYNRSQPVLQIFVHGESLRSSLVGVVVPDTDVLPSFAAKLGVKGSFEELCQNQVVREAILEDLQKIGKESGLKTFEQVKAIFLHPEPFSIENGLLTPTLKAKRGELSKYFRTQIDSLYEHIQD

Compound	IC50 [1]	IC50 [2]
CC[C@@H](Oc1ccc(C(=O)NS(=O)(=O)N2CCN(CC(C)(C)O)CC2)c(F)c1F)c1ccc(Oc2ccccn2)cn1 [(R)-2,3-difluoro-N-((4-(2-hydroxy-2-methylpropyl)piperazin-1-yl)sulfonyl)-4-(1-(5-(pyridin-2-yloxy)pyridin-2-yl)propoxy)benzamide]	< 100 nM	< 100 nM
CC[C@@H](Oc1ccc(C(=O)NS(=O)(=O)N2CCN(CC)CC2)cc1C(F)(F)F)c1ccc(Oc2ccccn2)cn1 [(R)-N-((4-ethylpiperazin-1-yl)sulfonyl)-4-(1-(5-(pyridin-2-yloxy)pyridin-2-yl)propoxy)-3-(trifluoromethyl)benzamide]	< 100 nM	< 100 nM
CC[C@@H](Oc1ccc(C(=O)NS(=O)(=O)c2ccc(OC34CCN(CC3)C4)cc2)c(F)c1F)c1ccc(OCC2CC2)cn1 [(R)-N-((4-((1-azabicyclo[2.2.1]heptan-4-yl)oxy)phenyl)sulfonyl)-4-(1-(5-(cyclopropylmethoxy)pyridin-2-yl)propoxy)-2,3-difluorobenzamide]	100 to 500 nM	< 100 nM
CC[C@@H](Oc1ccc(C(=O)NS(=O)(=O)c2ccc(OCc3c[nH]cn3)cc2)c(F)c1F)c1ccc(OCCOC)cn1 [(R)-N-((4-((1H-imidazol-4-yl)methoxy)phenyl)sulfonyl)-2,3-difluoro-4-(1-(5-(2-methoxyethoxy)pyridin-2-yl)propoxy)benzamide]	> 500 nM	< 100 nM
CC[C@@H](Oc1ccc(C(=O)NS(=O)(=O)c2ccc(OC3CCCN(C)C3)cc2)c(F)c1F)c1ccc(Oc2ccccn2)cn1 (stereo partly drawn) [2,3-difluoro-N-((4-((1-methylpiperidin-3-yl)oxy)phenyl)sulfonyl)-4-((R)-1-(5-(pyridin-2-yloxy)pyridin-2-yl)propoxy)benzamide]	< 100 nM	< 100 nM
CC[C@@H](Oc1ccc(C(=O)NS(=O)(=O)c2ccc(OCCN3CCCCC3)cc2)c(F)c1F)c1ccc(OCC2CC2)cn1 [(R)-4-(1-(5-(cyclopropylmethoxy)pyridin-2-yl)propoxy)-2,3-difluoro-N-((4-(2-(piperidin-1-yl)ethoxy)phenyl)sulfonyl)benzamide]	< 100 nM	< 100 nM
CC[C@@H](Oc1ccc(C(=O)NS(=O)(=O)N2CCN(C)[C@@H](C)C2)c(F)c1F)c1ccc(Oc2ccccn2)cn1 [N-(((S)-3,4-dimethylpiperazin-1-yl)sulfonyl)-2,3-difluoro-4-((R)-1-(5-(pyridin-2-yloxy)pyridin-2-yl)propoxy)benzamide]	< 100 nM	< 100 nM
CC[C@@H](Oc1ccc(C(=O)NS(=O)(=O)N2CCN(C)CC2)cc1C(F)(F)F)c1ccc(Oc2ccccn2)cn1 [(R)-N-((4-methylpiperazin-1-yl)sulfonyl)-4-(1-(5-(pyridin-2-yloxy)pyridin-2-yl)propoxy)-3-(trifluoromethyl)benzamide]	< 100 nM	< 100 nM
CC[C@@H](Oc1ccc(C(=O)NS(=O)(=O)N2CCN(C3CCCC3)CC2)c(F)c1F)c1ccc(OCC2CC2)cn1 [(R)-N-((4-cyclopentylpiperazin-1-yl)sulfonyl)-4-(1-(5-(cyclopropylmethoxy)pyridin-2-yl)propoxy)-2,3-difluorobenzamide]	100 to 500 nM	< 100 nM
CC[C@@H](Oc1ccc(C(=O)NS(=O)(=O)c2ccc(NCCN3CCCC3)nc2)c(F)c1F)c1ccc(OCC2CC2)cn1 [(R)-4-(1-(5-(cyclopropylmethoxy)pyridin-2-yl)propoxy)-2,3-difluoro-N-((6-((2-(pyrrolidin-1-yl)ethyl)amino)pyridin-3-yl)sulfonyl)benzamide]	> 500 nM	< 100 nM
CC[C@@H](Oc1ccc(C(=O)NS(=O)(=O)c2ccc(OCCN(C)C)cc2)c(F)c1F)c1ccc(OCCOC)cn1 [(R)-N-((4-(2-(dimethylamino)ethoxy)phenyl)sulfonyl)-2,3-difluoro-4-(1-(5-(2-methoxyethoxy)pyridin-2-yl)propoxy)benzamide]	> 500 nM	100 to 500 nM
CC[C@@H](Oc1ccc(C(=O)NS(=O)(=O)c2ccc(OC3CCCN(C)C3)cc2)c(F)c1F)c1ccc(OCC2CC2)cn1 (stereo partly drawn) [4-((R)-1-(5-(cyclopropylmethoxy)pyridin-2-yl)propoxy)-2,3-difluoro-N-((4-((1-methylpiperidin-3-yl)oxy)phenyl)sulfonyl)benzamide]	< 100 nM	< 100 nM
CC[C@@H](Oc1ccc(C(=O)NS(=O)(=O)C2CCN(C)CC2)c(F)c1F)c1ccc(OCC2CC2)cn1 [(R)-4-(1-(5-(cyclopropylmethoxy)pyridin-2-yl)propoxy)-2,3-difluoro-N-((1-methylpiperidin-4-yl)sulfonyl)benzamide]	> 500 nM	100 to 500 nM
CC[C@@H](Oc1ccc(C(=O)NS(=O)(=O)N2CCN(C3CCCC3)CC2)c(F)c1F)c1ccc(Oc2ccccn2)cn1 [(R)-N-((4-cyclopentylpiperazin-1-yl)sulfonyl)-2,3-difluoro-4-(1-(5-(pyridin-2-yloxy)pyridin-2-yl)propoxy)benzamide]	100 to 500 nM	< 100 nM
CC[C@@H](Oc1ccc(C(=O)NS(=O)(=O)c2ccc(OCCN(C)C)cc2)cc1C(F)(F)F)c1ccc(OCC2CC2)cn1 [(R)-4-(1-(5-(cyclopropylmethoxy)pyridin-2-yl)propoxy)-N-((4-(2-(dimethylamino)ethoxy)phenyl)sulfonyl)-3-(trifluoromethyl)benzamide]	100 to 500 nM	< 100 nM
CC[C@@H](Oc1ccc(C(=O)NS(=O)(=O)c2ccc(OC3CCNCC3)cc2)c(F)c1F)c1ccc(OCC2CC2)cn1 [(R)-4-(1-(5-(cyclopropylmethoxy)pyridin-2-yl)propoxy)-2,3-difluoro-N-((4-(piperidin-4-yloxy)phenyl)sulfonyl)benzamide]	> 500 nM	< 100 nM
C[C@@H](Oc1ccc(C(=O)NS(=O)(=O)c2ccc(OCCN(C)C)cc2)cc1C(F)(F)F)c1ccc(Oc2ccccn2)cn1 [(R)-N-((4-(2-(dimethylamino)ethoxy)phenyl)sulfonyl)-4-(1-(5-(pyridin-2-yloxy)pyridin-2-yl)ethoxy)-3-(trifluoromethyl)benzamide]	< 100 nM	< 100 nM
CC[C@@H](Oc1ccc(C(=O)NS(=O)(=O)N2CCC(OC3CCN(C)CC3)CC2)c(F)c1F)c1cc(OCC2CC2)ccn1 [(R)-4-(1-(4-(cyclopropylmethoxy)pyridin-2-yl)propoxy)-2,3-difluoro-N-((4-((1-methylpiperidin-4-yl)oxy)piperidin-1-yl)sulfonyl)benzamide]	100 to 500 nM	100 to 500 nM
CC[C@@H](Oc1ccc(C(=O)NS(=O)(=O)c2ccc(OC3CCN(CC)CC3)cc2)c(F)c1F)c1ccc(OCC2CC2)cn1 [(R)-4-(1-(5-(cyclopropylmethoxy)pyridin-2-yl)propoxy)-N-((4-((1-ethylpiperidin-4-yl)oxy)phenyl)sulfonyl)-2,3-difluorobenzamide]	< 100 nM	< 100 nM
CC[C@@H](Oc1ccc(C(=O)NS(=O)(=O)N2CCC(OC3CCN(C)CC3)CC2)c(F)c1F)c1ccc(Oc2ccccn2)cn1 [(R)-2,3-difluoro-N-((4-((1-methylpiperidin-4-yl)oxy)piperidin-1-yl)sulfonyl)-4-(1-(5-(pyridin-2-yloxy)pyridin-2-yl)propoxy)benzamide]	< 100 nM	< 100 nM
C[C@@H](Oc1ccc(C(=O)NS(=O)(=O)c2ccc(OCCN(C)C)cc2)c(F)c1F)c1ccc(Oc2ccccn2)cn1 [(R)-N-((4-(2-(dimethylamino)ethoxy)phenyl)sulfonyl)-2,3-difluoro-4-(1-(5-(pyridin-2-yloxy)pyridin-2-yl)ethoxy)benzamide]	100 to 500 nM	< 100 nM
CC[C@@H](Oc1ccc(C(=O)NS(=O)(=O)c2ccc(NC3CCN(C(C)C)CC3)nc2)c(F)c1F)c1ccc(OCC2CC2)cn1 [(R)-4-(1-(5-(cyclopropylmethoxy)pyridin-2-yl)propoxy)-2,3-difluoro-N-((6-((1-isopropylpiperidin-4-yl)amino)pyridin-3-yl)sulfonyl)benzamide]	> 500 nM	< 100 nM
CC[C@@H](Oc1ccc(C(=O)NS(=O)(=O)N2CCN(C)C(C)(C)C2)c(F)c1F)c1ccc(OCC2CC2)cn1 [(R)-4-(1-(5-(cyclopropylmethoxy)pyridin-2-yl)propoxy)-2,3-difluoro-N-((3,3,4-trimethylpiperazin-1-yl)sulfonyl)benzamide]	< 100 nM	< 100 nM
CC[C@@H](Oc1ccc(C(=O)NS(=O)(=O)c2ccc(NC3CCN(C)CC3)cn2)c(F)c1F)c1ccc(OCC2CC2)cn1 [(R)-4-(1-(5-(cyclopropylmethoxy)pyridin-2-yl)propoxy)-2,3-difluoro-N-((5-((1-methylpiperidin-4-yl)amino)pyridin-2-yl)sulfonyl)benzamide]	> 500 nM	< 100 nM
CC[C@@H](Oc1ccc(C(=O)NS(=O)(=O)N2CCN(C)CC2)c(F)c1F)c1cc(OCC2CC2)ccn1 [(R)-4-(1-(4-(cyclopropylmethoxy)pyridin-2-yl)propoxy)-2,3-difluoro-N-((4-methylpiperazin-1-yl)sulfonyl)benzamide]	100 to 500 nM	100 to 500 nM
CC[C@@H](Oc1ccc(C(=O)NS(=O)(=O)c2ccc(OCCNC3COC3)cc2)c(F)c1F)c1ccc(OCC2CC2)cn1 [(R)-4-(1-(5-(cyclopropylmethoxy)pyridin-2-yl)propoxy)-2,3-difluoro-N-((4-(2-(oxetan-3-ylamino)ethoxy)phenyl)sulfonyl)benzamide]	100 to 500 nM	< 100 nM
